Data reported in patent publication US7517902B2, “Substituted indazoles, compositions containing the same, and the preparation and use thereof” (Aventis Pharma S.A., priority 2004, dated 2009).

target: T1, CDK4/cyclin D1 kinase complex (Homo sapiens, UniProt P11802); experiment: CDK4/cyclinD1 Flashplate assay in 96-well format; assay type: biochemical; conditions: read-out: IC 50 CDK4
T1 construct: HA (Hemagglutinin tag) (C); made in house; host or cells: Sf9 insect cells (baculovirus co-infection)
T1 sequence (P11802 whole entry): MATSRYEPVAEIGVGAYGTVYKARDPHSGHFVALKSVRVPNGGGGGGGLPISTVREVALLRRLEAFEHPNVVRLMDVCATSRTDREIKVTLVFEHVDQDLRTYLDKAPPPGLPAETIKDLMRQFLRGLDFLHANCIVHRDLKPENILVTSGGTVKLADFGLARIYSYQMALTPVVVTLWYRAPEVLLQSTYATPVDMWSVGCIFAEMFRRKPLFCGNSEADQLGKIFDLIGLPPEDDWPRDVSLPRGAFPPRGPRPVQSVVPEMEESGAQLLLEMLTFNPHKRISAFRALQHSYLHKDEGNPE
T1 sequence (P24385 whole entry partner): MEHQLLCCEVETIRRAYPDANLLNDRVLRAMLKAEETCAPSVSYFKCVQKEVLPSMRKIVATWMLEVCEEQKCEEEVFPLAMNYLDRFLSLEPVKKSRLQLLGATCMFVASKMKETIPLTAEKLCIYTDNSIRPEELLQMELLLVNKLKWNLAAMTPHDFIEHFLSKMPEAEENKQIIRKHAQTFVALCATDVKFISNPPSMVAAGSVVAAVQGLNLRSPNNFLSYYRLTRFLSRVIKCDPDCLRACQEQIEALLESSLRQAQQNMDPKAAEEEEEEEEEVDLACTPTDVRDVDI
Description: Purification of the CDK4-HA/cyclin D1-(His)6 complex by IMAC (Immobilized Metal Affinity Chromatography):
Two recombinant baculoviruses carrying the human sequences coding respectively for CDK4-HA (C-terminal fusion with the Hemagglutinin tag) and for cyclin D1-(His)6 are used to co-infect Sf9 insect cells. Sixty hours after the beginning of co-infection, the cells are harvested by centrifugation and then frozen at −20° C. until their use. After thawing in buffer A (HEPES 200 mM pH 7.0, NaCl 50 mM, MgCl2 2 mM, imidazole 25 mM, TCEP 1 mM, glycerol 10% (w/v), NaF 1 mM, Na3VO4 1 mM), stirring at 4° C. for 1 h, and centrifugation, the complex present in the lysis supernatant is purified by affinity chromatography on nickel (IMAC) and stored at −80° C.
CDK4/cyclinD1 Flashplate Assay in 96-Well Format.
An assay in 96-well “Flashplate” (scintillation plate) plates coated with streptavidin is used to evaluate the inhibition of the CDK4/cyclin D1 kinase complex by the products of the invention. To perform this test, the biotinylated peptide substrate, a fragment of the pRb protein, (biotinyl-[…]-amide), is dissolved at a concentration of 2 mM in kinase buffer (HEPES/NaOH 50 mM, NaCl 1 mM, MgCl2 5 mM, pH=7.5) to form a stock solution, which is stored at −20° C. in the form of 110 μl aliquots. On the day of the experiment, an aliquot of this solution is thawed and diluted in kinase buffer containing 1 mM of dithiothreitol, added at the time of use, so as to give a final peptide concentration of 2.571 μM. seventy μl of this solution are deposited in each well of the Flashplate plate, to give a final substrate concentration of 1.8 μM during the enzymatic reaction, which is performed in a final volume of 100 μl (cf. below). Intermediate dilutions of inhibitors (products of the invention) at various concentrations are prepared in DMSO from 10 mM stock solutions in separate tubes. In this way dilutions at 1000 μM, 333.3 μM, 111.1 μM, 37.03 μM, 12.35 μM, 4.11 μM and 1.37 μM are produced. One μl of each of these solutions (or 1 μl of DMSO for the controls) is subsequently transferred into the wells of the assay plate. To each well there is subsequently added 19 μl of a solution of a mixture of adenosine triphosphate (ATP) and ATPγ^33P in the kinase buffer at a concentration of 5.26 μM of total ATP and 78.9 μCi/ml of ^33P. The enzymatic reaction is triggered by adding 10 μl per well of a solution of CDK4/cyclin D1 complex at 250 nM in the kinase buffer, containing 1 mM of dithiothreitol (or 10 μl of kinase buffer containing 1 mM of dithiothreitol for the reaction blanks). At the end of the various additions, the final volume in each well is 100 μl, the final substrate concentration is 1.8 μM, the final inhibitor concentrations are 10 μM, 3.33 μM, 1.11 μM, 0.37 μM, 0.123 μM, 0.041 μM and 0.014 μM (depending on the concentration of the intermediate dilution), the final ATP concentration is 1 μM, the final amount of ^33P is 1.5 μCi/well, and the final concentration of CDK4/cyclin D1 complex is 25 nM.
After all of the reagents have been added, the assay plate is incubated at 30° C. with orbital stirring at 650 rpm. Following incubation, the plate is washed three times with 300 μl per well of PBS buffer (phosphate buffered saline, pH=7.4 with neither calcium nor magnesium, reference 10010-015, Gibco BRL). The incorporation of ^33P into the substrate peptide is measured by scintillation counting using a Packard Topcount.NXT instrument. The inhibitory activity of the products of the invention is evaluated by determining the concentration of inhibitor resulting in a 50% reduction in the enzymatic activity (IC50).

IC50	Structure (SMILES)
747 nM	O=C(Nc1n[nH]c2c(F)c(-c3ccc(NS(=O)(=O)c4ccccc4)cc3)ccc12)c1ccsc1 [Example 32, Thiophene-3-carboxylic acid[6-(4-benzene-sulfonylamino-phenyl)-7-fluoro-1H-indazol-3-yl]-amide]
490 nM	O=C(Nc1n[nH]c2c(F)c(-c3ccc(NS(=O)(=O)c4cccc5ccccc45)cc3)ccc12)c1ccsc1 [Example 30, Thiophene-3-carboxylic acid{7-fluoro-6-[4-(naphthalene-1-sulfonylamino)-phenyl]-1H-indazol-3-yl}-amide]
3650 nM	Cn1cnc(S(=O)(=O)Nc2ccc(-c3ccc4c(NC(=O)c5ccsc5)n[nH]c4c3F)cc2)c1 [Example 39, Thiophene-3-carboxylic acid{7-fluoro-6[4-(1-methyl-1H-imidazole-4-sulfonylamino)-phenyl]-1H-indazol-3-yl}-amide]
1210 nM	CC(=O)Nc1ccc(S(=O)(=O)Nc2ccc(-c3ccc4c(NC(=O)c5ccsc5)n[nH]c4c3F)cc2)cc1 [Example 33, Thiophene-3-carboxylic acid{6-[4-(4-acetyl-aminobenzene-sulfonylamino)-phenyl]-7-fluoro-1H-indazol-3-yl}-amide]
3600 nM	O=C(Nc1n[nH]c2c(F)c(-c3ccc(NS(=O)(=O)C4CC4)cc3)ccc12)c1ccsc1 [Example 36, Thiophene-3-carboxylic acid{6-[4-cyclo-propanesulfonyl-aminophenyl)-7-fluoro-1H-indazol-3-yl}-amide]
51 nM	O=C(Nc1n[nH]c2c(F)c(-c3ccc(NS(=O)(=O)c4ccccc4Cl)cc3)ccc12)c1ccsc1 [Example 37, Thiophene-3-carboxylic acid{6-[4-(2-chloro-benzenesulfonyl-amino)phenyl]-7-fluoro-1H-indazol-3-yl}-amide]
730 nM	O=C(Nc1n[nH]c2c(F)c(-c3ccc(NS(=O)(=O)c4cccs4)cc3)ccc12)c1ccsc1 [Example 31, Thiophene-3-carboxylic acid{7-fluoro-6-[4-(thiophene-2-sulfonylamino)-phenyl]-1H-indazol-3-yl}-amide]
419 nM	O=C(Nc1n[nH]c2c(F)c(-c3ccc(NS(=O)(=O)c4cccc(Cl)c4)cc3)ccc12)c1ccsc1 [Example 38, Thiophene-3-carboxylic acid{6-[4-(3-chloro-benzenesulfonyl-amino)phenyl]-7-fluoro-1H-indazol-3-yl}-amide]
2090 nM	CS(=O)(=O)Nc1ccc(-c2ccc3c(NC(=O)c4ccsc4)n[nH]c3c2F)cc1 [Example 34, Thiophene-3-carboxylic acid[7-fluoro-6-(4-methanesulfonyl-aminophenyl)-1H-indazol-3-yl]-amide]
